The source of these data is patent US9981916B2 (Genentech, Inc., priority 2013, dated 2018).

The target of this assay is T1, RORc ligand binding domain (Homo sapiens, UniProt P51449).
T1 construct: host or cells: E. coli
T1 sequence (P51449 269-508 limits assumed): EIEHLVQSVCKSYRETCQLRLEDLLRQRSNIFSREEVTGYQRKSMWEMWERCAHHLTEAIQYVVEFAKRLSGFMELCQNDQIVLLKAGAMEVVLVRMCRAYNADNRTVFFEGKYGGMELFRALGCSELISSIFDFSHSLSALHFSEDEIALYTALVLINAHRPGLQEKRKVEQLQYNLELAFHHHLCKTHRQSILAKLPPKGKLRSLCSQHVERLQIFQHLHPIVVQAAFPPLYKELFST
The assay is described as follows: In vitro RORc ligand binding assay (25-[3H]hydroxycholesterol displacement, filter binding). The following applies: 6 nM 25-[3H]hydroxycholesterol, 0.6 ug/mL RORc receptor, 3 h at 25° C. The method, then:
Example 17: In Vitro RORc Ligand Binding Assay
This assay was used to determine a compound's potency in inhibiting activity of RORc by determining, Kiapp, IC50, or percent inhibition values.
On day of the assay, 100 uL of 0.05% CHAPS (in deionized H2O) was added to all wells of the GFB Unifilter plate and allowed soak for 1 h. A wash buffer of 50 mM HEPES (pH 7.4), 150 mM NaCl, and 5 mM MgCl2 was prepared to wash the filter plate. To prepare an assay buffer, BSA was added to the wash buffer to reach 0.01% and DTT was added to reach 1 mM.
For IC50 mode, 10 mM compound stocks were serially diluted in DMSO with DMSO to give 20× required final concentration in DMSO (15 uL compound+30 uL DMSO). The 20× compound stocks were diluted in DMSO with Assay Buffer 4-fold to reach 5× the final test concentration in 25% DMSO (10 uL compound+30 uL Assay Buffer). Solutions were mixed by aspiration several times with a pipette set on 50 uL volume. For the assay, 10 uL of 5× compound stock solutions in 25% DMSO were added to the assay plate in duplicate.
For two point screening, 10 mM stock compound solutions were diluted in DMSO to obtain 200 uM (20× the high test concentration) and then diluted 10-fold further to reach 20 uM (20× the low test concentration). The 20× stocks were diluted 4-fold with Assay Buffer (10 uL compound+30 uL Assay Buffer) to reach 5× the test concentrations (50 uM and 5 uM) and 10 uL were added to two assay plates for the duplicate wells. With each concentration tested on 2 plates, each set of 80 compounds used 4 assay plates (1 uM and 10 uM, with n=2).
25-hydroxycholesterol (1 uM) was used to determine the level of NSB signal is prepared in DMSO as for compounds above, then diluted in Assay Buffer to give a final concentration of 5 uM. For 25-hydroxycholesterol in 25% DMSO/75% Assay Buffer; 10 uL per well was used for NSB samples. Wells for Total Binding and No Receptor sample determination contained 10 uL of 25% DMSO/75% Assay Buffer per well.
25-[^3H]hydroxycholesterol was diluted in Assay Buffer to obtain 15 nM and vortex to mix. Add 20 uL to all wells to reach 6 nM final concentration in the assay.
Stock receptor solution was diluted in assay buffer to obtain 1.5 ug/mL in Assay Buffer. 20 uL was added to all wells. For No Receptor samples, 20 uL Assay Buffer was substituted for receptor solution.
Assay plates were 96-well polypropylene V-bottom plates. 10 uL of 5× compound in 25% DMSO/75% Assay Buffer was added to Test wells. 10 uL of 25% DMSO/75% Assay Buffer was added to Total Binding or No Receptor wells. 10 uL of 5 uM 25-hydroxycholesterol in 25% DMSO/75% Assay Buffer was added to NSB wells. 20 uL of 15 nM 25-[^3H]hydroxycholesterol prepared in Assay Buffer was added to all wells. 20 uL of 1.5 ug/mL RORc receptor was added to wells (or […] Assay Buffer to No R wells). Following addition to the wells, the plates were incubated 3 h at 25° C.
Using a Packard Filtermate Harvester, the filter plate were washed 4 times following transfer of the incubated samples. Plates were dry-filtered completely (2 h at 50° C. or overnight at room temperature). 50 uL Microscint 0 was added to all wells and read on Topcount protocol Inverted.
Final concentrations were as follows: 50 mM HEPES buffer (pH 7.4); 150 mM NaCl; 1 mM DTT; 5 mM MgCl2; 0.01% BSA; 5% DMSO; 0.6 ug/mL RORc receptor; 6 nM 25-[^3H]hydroxycholesterol. For NSB wells, 1 uM 25-hydroxycholesterol was also present.
With `Cc1c(-c2ccccc2F)nnc2c1[C@H]1CC[C@]2(C)C1(C)C` [Example 33, (5S,8R)-3-(2-fluorophenyl)-4,8,9,9-tetramethyl-5,6,7,8-tetrahydro-5,8-methanocinnoline], the IC50 (commonly the midpoint of a concentration-inhibition curve) came to 1220 nM.
Compound `CC1(C)[C@@H]2CC[C@@]1(CN1CCNC1=O)c1nnc(-c3ccccc3F)cc12` [Example 34, 1-{[(5S,8R)-3-(2-fluorophenyl)-9,9-dimethyl-6,7-dihydro-5,8-methanocinnolin-8(5H)-yl]methyl}imidazolidin-2-one] yielded an IC50 of 245 nM.
The result for `CC[C@]12CC[C@H](c3cc(-c4ccccc4F)nnc31)C2(C)C` [Example 35, (5S,8R)-8-ethyl-3-(2-fluorophenyl)-9,9-dimethyl-5,6,7,8-tetrahydro-5,8-methanocinnoline] reads 37 nM.
Next, `CN(C)C(=O)C[C@]12CC[C@H](c3cc(-c4ccccc4F)nnc31)C2(C)C` [Example 36, 2-[(5S,8S)-3-(2-fluorophenyl)-9,9-dimethyl-6,7-dihydro-5,8-methanocinnolin-8(5H)-yl]-N,N-dimethylacetamide]: 5170 nM; `CNC(=O)C[C@]12CC[C@H](c3cc(-c4ccccc4F)nnc31)C2(C)C` [Example 37, 2-[(5S,8S)-3-(2-fluorophenyl)-9,9-dimethyl-6,7-dihydro-5,8-methanocinnolin-8(5H)-yl]-N-methylacetamide]: 880 nM.
As for `CC(C)OC[C@]12CC[C@H](c3cc(-c4ccccc4F)nnc31)C2(C)C` [Example 38, (5S,8S)-3-(2-fluorophenyl)-9,9-dimethyl-8-[(propan-2-yloxy)methyl]-5,6,7,8-tetrahydro-5,8-methanocinnoline], the 50% inhibitory concentration (IC50) was 281 nM.
With `Cc1nc(C[C@]23CC[C@H](c4cc(-c5ccccc5F)nnc42)C3(C)C)no1` [Example 39, (5S,8S)-3-(2-fluorophenyl)-9,9-dimethyl-8-[(5-methyl-1,2,4-oxadiazol-3-yl)methyl]-5,6,7,8-tetrahydro-5,8-methanocinnoline], the IC50 came to 1730 nM.
The compound `COCC12CCC(c3cc(-c4ccccc4F)nnc31)C21CC1` (stereo not drawn) [Example 40, 3′-(2-fluorophenyl)-8′-(methoxymethyl)-5′,6′,7′,8′-tetrahydro-spiro[cyclopropane-1,9′-[1,2]diaza[5,8]methanocinnoline]] registered an IC50 of 350 nM.
Next, `COCC[C@]12CC[C@H](c3cc(-c4ccccc4F)nnc31)C2(C)C` [Example 41, (5S,8S)-3-(2-fluorophenyl)-8-(2-methoxyethyl)-9,9-dimethyl-5,6,7,8-tetrahydro-5,8-methanocinnoline]: 54 nM.
Next, `Cc1noc(C[C@]23CC[C@H](c4cc(-c5ccccc5F)nnc42)C3(C)C)n1` [Example 42, (5S,8S)-3-(2-fluorophenyl)-9,9-dimethyl-8-[(3-methyl-yl)methyl]-5,6,7,8-tetrahydro-5,8-methanocinnoline]: 238 nM.
Compound `CNC(=O)N(C)C[C@]12CC[C@H](c3cc(-c4ccccc4F)nnc31)C2(C)C` [Example 43, 1-{[(5S,8R)-3-(2-fluorophenyl)-9,9-dimethyl-6,7-dihydro-5,8-methanocinnolin-8(5H)-yl]methyl}-1,3-dimethylurea] showed an IC50 of 624 nM.
With `Cc1ccn(C[C@]23CC[C@H](c4cc(-c5ccccc5F)nnc42)C3(C)C)n1` [Example 44, (5S,8R)-3-(2-fluorophenyl)-9,9-dimethyl-8-[(3-methyl-1H-pyrazol-1-yl)methyl]-5,6,7,8-tetrahydro-5,8-methanocinnoline], the 50% inhibitory concentration (IC50) stood at 607 nM.
The result for `CC1(C)[C@@H]2CC[C@@]1(Cc1noc(CO)n1)c1nnc(-c3ccccc3F)cc12` [Example 45, (3-{[(5S,8S)-3-(2-fluorophenyl)-9,9-dimethyl-6,7-dihydro-5,8-methanocinnolin-8(5H)-yl]methyl}-1,2,4-oxadiazol-5-yl)methanol] reads 756 nM; that for `CN1CCN(C[C@]23CC[C@H](c4cc(-c5ccccc5F)nnc42)C3(C)C)C1=O` [Example 46, 1-{[(5S,8R)-3-(2-fluorophenyl)-9,9-dimethyl-6,7-dihydro-5,8-methanocinnolin-8(5H)-yl]methyl}-3-methylimidazolidin-2-one], 1450 nM.
The result for `Cc1cnn(C[C@]23CC[C@H](c4cc(-c5ccccc5F)nnc42)C3(C)C)c1` [Example 47, (5S,8R)-3-(2-fluorophenyl)-9,9-dimethyl-8-[(4-methyl-1H-pyrazol-1-yl)methyl]-5,6,7,8-tetrahydro-5,8-methanocinnoline] reads 267 nM; that for `CC1(C)[C@@H]2CC[C@@]1(CN1CCN(CCN3CCOCC3)C1=O)c1nnc(-c3ccccc3F)cc12` [Example 48, 1-{[(5S,8R)-3-(2-fluorophenyl)-9,9-dimethyl-6,7-dihydro-5,8-methanocinnolin-8(5H)-yl]methyl}-3-[2-(morpholin-4-yl)ethyl]imidazolidin-2-one], 643 nM; that for `CC1(C)[C@@H]2CC[C@@]1(C(=O)N1CCC1)c1nnc(-c3c(F)cccc3F)cc12` [Example 49, azetidin-1-yl[(5S,8S)-3-(2,6-difluorophenyl)-9,9-dimethyl-6,7-dihydro-5,8-methanocinnolin-8(5H)-yl]methanone], 44 nM.
`CC1(C)[C@@H]2CC(=O)[C@@]1(C)c1nnc(-c3ccccc3F)cc12` [Example 50, (5S,8R)-3-(2-fluorophenyl)-8,9,9-trimethyl-5,8-dihydro-5,8-methanocinnolin-7(6H)-one] yielded a concentration for half-maximal inhibition (IC50) of 2420 nM. This IC50 lies about 55-fold higher than the previous one.
For `C=C1C[C@@H]2c3cc(-c4ccccc4F)nnc3[C@@]1(C)C2(C)C` [Example 51, (5S,8R)-3-(2-fluorophenyl)-8,9,9-trimethyl-7-methylidene-5,6,7,8-tetrahydro-5,8-methanocinnoline], the concentration for half-maximal inhibition (IC50) amounted to 657 nM.
The result for `CC1(C)[C@@H]2CC[C@@]1(C#N)c1nnc(-c3ccccc3F)cc12` [Example 52, (5S,8S)-3-(2-fluorophenyl)-9,9-dimethyl-6,7-dihydro-5,8-methanocinnoline-8(5H)-carbonitrile] reads 1530 nM.
The result for `CNC(=O)[C@]12CC[C@H](c3cc(-c4c(F)cccc4F)nnc31)C2(C)C` [Example 53, (5S,8S)-3-(2,6-difluorophenyl)-N,9,9-trimethyl-6,7-dihydro-5,8-methanocinnoline-8(5H)-carboxamide] reads 139 nM; that for `CC1(C)[C@@H]2CC[C@@]1(C(=O)N1CCOCC1)c1nnc(-c3c(F)cccc3F)cc12` [Example 54, [(5S,8S)-3-(2,6-difluorophenyl)-9,9-dimethyl-6,7-dihydro-5,8-methanocinnolin-8(5H)-yl](morpholin-4-yl)methanone], 42 nM.
Next, `CON(C)C(=O)[C@]12CC[C@H](c3cc(-c4c(F)cccc4F)nnc31)C2(C)C` [Example 55, (5S,8S)-3-(2,6-difluorophenyl)-N-methoxy-N,9,9-trimethyl-6,7-dihydro-5,8-methanocinnoline-8(5H)-carboxamide]: 124 nM; `CC1(C)[C@H]2CC[C@]1(CN1CCOCC1)c1nnc(-c3c(F)cccc3F)cc12` [Example 56, (5R,8S)-3-(2,6-difluorophenyl)-9,9-dimethyl-8-(morpholin-4-ylmethyl)-5,6,7,8-tetrahydro-5,8-methanocinnoline]: 252 nM.
